From PubChem BioAssay (NCI)
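These data come from cells grown in 96-well plates and exposed to compound for 48 hours at five concentrations. At the TGI there is no net growth.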

Columns and labels:
Test in all cases: NCI anticancer screen, dose series, 48 h
CAKI-1 renal = system: CAKI-1 renal
MDA-MB-435 = system: MDA-MB-435
SF-539 CNS = system: SF-539 CNS
OVCAR-3 ovarian = system: OVCAR-3 ovarian
NCI-H460 lung = system: NCI-H460 lung
MOLT-4 leukemia = system: MOLT-4 leukemia
SR leukemia = system: SR leukemia
PC-3 prostate = system: PC-3 prostate
SK-MEL-28 melanoma = system: SK-MEL-28 melanoma
HCT-116 colon = system: HCT-116 colon
MDA-MB-231 breast = system: MDA-MB-231 breast
OVCAR-8 ovarian = system: OVCAR-8 ovarian
786-0 renal = system: 786-0 renal

| Compound | TGI (CAKI-1 renal) [µM] | TGI (MDA-MB-435) [µM] | TGI (SF-539 CNS) [µM] | TGI (OVCAR-3 ovarian) [µM] | TGI (NCI-H460 lung) [µM] | TGI (MOLT-4 leukemia) [µM] | TGI (SR leukemia) [µM] | TGI (PC-3 prostate) [µM] | TGI (SK-MEL-28 melanoma) [µM] | TGI (HCT-116 colon) [µM] | TGI (MDA-MB-231 breast) [µM] | TGI (OVCAR-8 ovarian) [µM] | TGI (786-0 renal) [µM] |
| --- | --- | --- | --- | --- | --- | --- | --- | --- | --- | --- | --- | --- | --- |
| Nc1nc(Cl)cc(NCC2(CCO)CCC2)n1 | > 100 | > 100 | > 100 | > 100 | > 100 | > 100 | > 100 | > 100 | > 100 | > 100 | > 100 | > 100 | > 100 |
| COc1c2c(c3c(c1OC)c(=O)c1ccccc1n3C)OCO2 | > 100 | > 100 | > 100 | > 100 | > 100 | > 100 | > 100 | > 100 | > 100 | > 100 | > 100 | > 100 | > 100 |
| CC(C)(C)c1cc(/C=C(\C#N)C2=NCCO2)cc(C(C)(C)C)c1O | > 35.5 | 32.3 | 12.2 | 7.51 | 6.63 | 21.1 | 8.91 | 7.37 | 29 | 11.9 | 12.4 | 19.6 | 14.7 |
| O=[N+]([O-])c1ncc(N(CCO)CCO)s1 | > 100 | > 100 | 30.7 | > 100 | > 100 | > 100 | > 100 | > 100 | 33.2 | > 100 | > 100 | > 100 | > 100 |
| COc1ccc(C2SCC(=O)N2c2ccc(-n3c(-c4ccccc4)nc4ccccc4c3=O)cc2)cc1 (stereo not drawn) | > 100 | > 100 | > 100 | > 100 | > 100 | > 100 | > 100 | > 100 | > 100 | > 100 | > 100 | > 100 | > 100 |
| C(=N\c1nc2cc3sc(/N=C/c4ccccc4)nc3cc2s1)/c1ccccc1 | > 100 | > 100 | > 100 | > 100 | > 100 | > 80.9 | > 100 | > 100 | > 100 | > 100 | > 100 | > 100 | > 100 |
| C[C@H](Nc1nc(N)c(N=O)c(=O)n1C)C(=O)O | > 10 | > 10 | > 10 | > 10 | > 10 | > 10 | > 10 | > 10 | > 10 | > 10 | > 10 | > 10 | > 10 |
| NC1=Nc2ccccc2Sc2nncn21 | > 100 | > 100 | > 100 | > 100 | > 100 | > 100 | > 100 | > 100 | > 100 | > 100 | > 100 | > 100 | > 100 |
| Cc1c(NC(=S)Nc2ccc([N+](=O)[O-])cc2)c(=O)n(-c2ccccc2)n1C | > 100 | > 100 | > 100 | > 100 | > 100 | > 100 | > 100 | > 100 | > 100 | > 100 | > 100 | > 100 | > 100 |
| CCOP(=O)(OCC)Oc1c(OC)c2[nH]c(C(=O)OC)cc2c2c(C(=O)O)c[nH]c12 | > 100 | > 100 | > 100 | > 100 | > 100 | > 100 | > 100 | > 100 | > 100 | > 100 | > 100 | > 100 | > 100 |
| Nn1c(CCCCCCCCc2nnc(-c3c(O)ccc4ccccc34)n2N)nnc1-c1c(O)ccc2ccccc12 | > 100 | > 100 | > 100 | > 100 | > 100 | > 100 | > 100 | > 100 | > 100 | > 100 | > 100 | > 100 | > 100 |
| O=S(=O)(O)c1ccc(N=Nc2ccccc2)cc1 | > 100 | > 100 | > 100 | > 100 | > 100 | > 100 | > 100 | > 100 | > 100 | > 100 | > 100 | > 100 | > 100 |
| COC(=O)CCc1ccc(CCC(=O)OC)cc1 | > 100 | > 100 | > 100 | > 100 | > 100 | > 100 | > 100 | > 100 | > 100 | > 100 | > 100 | > 100 | > 100 |
| COc1ccc2c(c1)c1c3c(ccc4ncn2c43)N(CCO)CCN=1 | 2.51 | 0.834 | 0.347 | 0.648 | 0.484 | 0.656 | 0.207 | 0.464 | 0.941 | 0.214 | 0.511 | 1.72 | 1.06 |
| CCn1c(SCC(=O)N/N=C2\SCC(=O)N2c2ccc(C)cc2)nc2ccccc2c1=O | 33.2 | 43.8 | 33.5 | 62.9 | 57.4 | > 100 | 47.2 | 54.2 | 48.7 | 35.9 | 36.3 | 35.5 | 35 |
| Nc1ncnc2c1ncn2[C@H]1C=C[C@@H](NO)C1 | > 100 | > 100 | > 100 | > 100 | > 100 | > 100 | > 100 | > 100 | > 100 | > 100 | > 100 | > 100 | > 100 |
